Results as given in PubChem BioAssay (NCI).
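Method: 48-hour compound exposure of cells in 96-well plates, five concentrations, linear interpolation of endpoints. GI50: concentration for 50% inhibition of growth. At the TGI there is no net growth.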

Key:
Test in all cases: NCI tumour cell line growth inhibition, 48 h
BT-549 breast = tested on: BT-549 breast
LOX IMVI melanoma = tested on: LOX IMVI melanoma
OVCAR-8 ovarian = tested on: OVCAR-8 ovarian
NCI/ADR-RES ovarian = tested on: NCI/ADR-RES ovarian
NCI-H522 lung = tested on: NCI-H522 lung
HCT-116 colon = tested on: HCT-116 colon
NCI-H226 lung = tested on: NCI-H226 lung
SNB-75 CNS = tested on: SNB-75 CNS
HS 578T breast = tested on: HS 578T breast
PC-3 prostate = tested on: PC-3 prostate
SK-MEL-2 melanoma = tested on: SK-MEL-2 melanoma
SR leukemia = tested on: SR leukemia
RPMI-8226 leukemia = tested on: RPMI-8226 leukemia
SK-MEL-28 melanoma = tested on: SK-MEL-28 melanoma
U251 CNS = tested on: U251 CNS
SF-295 CNS = tested on: SF-295 CNS
COLO 205 colon = tested on: COLO 205 colon
MDA-MB-231 breast = tested on: MDA-MB-231 breast
SN12C renal = tested on: SN12C renal
HCT-15 colon = tested on: HCT-15 colon
KM12 colon = tested on: KM12 colon
IGROV1 ovarian = tested on: IGROV1 ovarian
786-0 renal = tested on: 786-0 renal
OVCAR-3 ovarian = tested on: OVCAR-3 ovarian
SK-MEL-5 melanoma = tested on: SK-MEL-5 melanoma
SNB-19 CNS = tested on: SNB-19 CNS
K-562 leukemia = tested on: K-562 leukemia
DU-145 prostate = tested on: DU-145 prostate
SW-620 colon = tested on: SW-620 colon
HOP-92 NSCLC = tested on: HOP-92 NSCLC
RXF 393 renal = tested on: RXF 393 renal
MDA-MB-435 = tested on: MDA-MB-435
SF-268 CNS = tested on: SF-268 CNS
MOLT-4 leukemia = tested on: MOLT-4 leukemia
UACC-62 melanoma = tested on: UACC-62 melanoma
CAKI-1 renal = tested on: CAKI-1 renal
T-47D breast = tested on: T-47D breast
UO-31 renal = tested on: UO-31 renal
HL-60(TB) leukemia = tested on: HL-60(TB) leukemia
OVCAR-4 ovarian = tested on: OVCAR-4 ovarian
HOP-62 NSCLC = tested on: HOP-62 NSCLC
TK-10 renal = tested on: TK-10 renal
A549 NSCLC = tested on: A549 NSCLC
UACC-257 melanoma = tested on: UACC-257 melanoma
OVCAR-5 ovarian = tested on: OVCAR-5 ovarian
NCI-H460 lung = tested on: NCI-H460 lung
M14 melanoma = tested on: M14 melanoma
EKVX NSCLC = tested on: EKVX NSCLC
SK-OV-3 ovarian = tested on: SK-OV-3 ovarian
ACHN renal = tested on: ACHN renal

`OCCN(CCO)N=Nc1ccc(-c2nc3ccccc3[nH]2)cc1` was tested, and the GI50 (BT-549 breast) was 42.7 µM, the TGI (BT-549 breast) was 97.8 µM and the GI50 (LOX IMVI melanoma) was 12.5 µM. The TGI (LOX IMVI melanoma) was 25.5 µM, the GI50 (OVCAR-8 ovarian) was 24.7 µM and the TGI (OVCAR-8 ovarian) was 53.9 µM. For the same compound, the GI50 (NCI/ADR-RES ovarian) was 34 µM, the TGI (NCI/ADR-RES ovarian) was 58 µM and the GI50 (NCI-H522 lung) was 50.2 µM. For the same compound, the TGI (NCI-H522 lung) was > 100 µM, the GI50 (HCT-116 colon) was 25.3 µM and the TGI (HCT-116 colon) was 64.3 µM. For the same compound, the GI50 (NCI-H226 lung) was > 100 µM, the TGI (NCI-H226 lung) was > 100 µM and the GI50 (SNB-75 CNS) was 28.9 µM. The TGI (SNB-75 CNS) was > 100 µM, the GI50 (HS 578T breast) was 23.5 µM and the TGI (HS 578T breast) was 72.8 µM. The GI50 (PC-3 prostate) was 39.4 µM, the TGI (PC-3 prostate) was > 100 µM and the GI50 (SK-MEL-2 melanoma) was 41.2 µM. The TGI (SK-MEL-2 melanoma) was > 100 µM, the GI50 (SR leukemia) was 20.3 µM and the TGI (SR leukemia) was 58.2 µM. The GI50 (RPMI-8226 leukemia) was 21.3 µM, the TGI (RPMI-8226 leukemia) was 52.4 µM and the GI50 (SK-MEL-28 melanoma) was 15.8 µM. The TGI (SK-MEL-28 melanoma) was 29.5 µM, the GI50 (U251 CNS) was 17.6 µM and the TGI (U251 CNS) was 37.4 µM. The GI50 (SF-295 CNS) was 17.4 µM, the TGI (SF-295 CNS) was 36 µM and the GI50 (COLO 205 colon) was 22.9 µM. It also gave a TGI (COLO 205 colon) of 70.4 µM, a GI50 (MDA-MB-231 breast) of 31.3 µM and a TGI (MDA-MB-231 breast) of 97.8 µM. For the same compound, the GI50 (SN12C renal) was 85.5 µM, the TGI (SN12C renal) was > 100 µM and the GI50 (HCT-15 colon) was 21.8 µM. For the same compound, the TGI (HCT-15 colon) was 51.2 µM, the GI50 (KM12 colon) was 16.3 µM and the TGI (KM12 colon) was 55.4 µM. The GI50 (IGROV1 ovarian) was 87.4 µM, the TGI (IGROV1 ovarian) was > 100 µM and the GI50 (786-0 renal) was 25.2 µM. For the same compound, the TGI (786-0 renal) was 56.2 µM, the GI50 (OVCAR-3 ovarian) was 11 µM and the TGI (OVCAR-3 ovarian) was 25.7 µM. The GI50 (SK-MEL-5 melanoma) was 20.2 µM, the TGI (SK-MEL-5 melanoma) was 53.4 µM and the GI50 (SNB-19 CNS) was > 100 µM. The TGI (SNB-19 CNS) was > 100 µM, the GI50 (K-562 leukemia) was 24 µM and the TGI (K-562 leukemia) was > 100 µM. It also gave a GI50 (DU-145 prostate) of 20.9 µM, a TGI (DU-145 prostate) of 46.6 µM and a GI50 (SW-620 colon) of 18.9 µM. The TGI (SW-620 colon) was 38.4 µM, the GI50 (HOP-92 NSCLC) was 3.02 µM and the TGI (HOP-92 NSCLC) was 23.8 µM. The GI50 (RXF 393 renal) was 27.9 µM, the TGI (RXF 393 renal) was 65 µM and the GI50 (MDA-MB-435) was 18.5 µM. The TGI (MDA-MB-435) was 38.8 µM, the GI50 (SF-268 CNS) was 3.31 µM and the TGI (SF-268 CNS) was 40.5 µM. It also gave a GI50 (MOLT-4 leukemia) of 14.4 µM, a TGI (MOLT-4 leukemia) of 38.5 µM and a GI50 (UACC-62 melanoma) of 35.2 µM. The TGI (UACC-62 melanoma) was > 100 µM, the GI50 (CAKI-1 renal) was 17 µM and the TGI (CAKI-1 renal) was 60.6 µM. The GI50 (T-47D breast) was 19.8 µM, the TGI (T-47D breast) was 53.1 µM and the GI50 (UO-31 renal) was 43.8 µM. For the same compound, the TGI (UO-31 renal) was > 100 µM, the GI50 (HL-60(TB) leukemia) was 10.8 µM and the TGI (HL-60(TB) leukemia) was 32.1 µM. The GI50 (OVCAR-4 ovarian) was 15.9 µM, the TGI (OVCAR-4 ovarian) was 36.1 µM and the GI50 (HOP-62 NSCLC) was > 100 µM. The TGI (HOP-62 NSCLC) was > 100 µM, the GI50 (TK-10 renal) was 36.1 µM and the TGI (TK-10 renal) was > 100 µM. The GI50 (A549 NSCLC) was 44.9 µM, the TGI (A549 NSCLC) was > 100 µM and the GI50 (UACC-257 melanoma) was 33.2 µM. For the same compound, the TGI (UACC-257 melanoma) was > 100 µM, the GI50 (OVCAR-5 ovarian) was > 100 µM and the TGI (OVCAR-5 ovarian) was > 100 µM. For the same compound, the GI50 (NCI-H460 lung) was 13.7 µM, the TGI (NCI-H460 lung) was 29.5 µM and the GI50 (M14 melanoma) was 46.4 µM. For the same compound, the TGI (M14 melanoma) was > 100 µM, the GI50 (EKVX NSCLC) was 17.1 µM and the TGI (EKVX NSCLC) was 37.5 µM. For the same compound, the GI50 (SK-OV-3 ovarian) was > 100 µM, the TGI (SK-OV-3 ovarian) was > 100 µM and the GI50 (ACHN renal) was 35.6 µM. For the same compound, the TGI (ACHN renal) was > 100 µM.
